Earlier results in patent US20170280761A1, “METHOD TO CONCENTRATE APOA-1 MIMETIC PEPTIDES TRANSGENICALLY EXPRESSED IN PLANTS” (The Regents of the University of California, priority 2014, published 2017).

How the values were obtained:
colon cancer = conditions: 4F added to mouse chow
tumor invasiveness = conditions: administration of the 4F peptide
[1] = system: epithelial ovarian cancer cells
ovarian cancer = conditions: for levels of lysophosphatidic acid (LPA) / tumor growth: administered either orally or by injection
[2] = target: T1, scavenger receptor A (SR-A) (Homo sapiens, UniProt P21757)
T1 sequence (P21757 1-451): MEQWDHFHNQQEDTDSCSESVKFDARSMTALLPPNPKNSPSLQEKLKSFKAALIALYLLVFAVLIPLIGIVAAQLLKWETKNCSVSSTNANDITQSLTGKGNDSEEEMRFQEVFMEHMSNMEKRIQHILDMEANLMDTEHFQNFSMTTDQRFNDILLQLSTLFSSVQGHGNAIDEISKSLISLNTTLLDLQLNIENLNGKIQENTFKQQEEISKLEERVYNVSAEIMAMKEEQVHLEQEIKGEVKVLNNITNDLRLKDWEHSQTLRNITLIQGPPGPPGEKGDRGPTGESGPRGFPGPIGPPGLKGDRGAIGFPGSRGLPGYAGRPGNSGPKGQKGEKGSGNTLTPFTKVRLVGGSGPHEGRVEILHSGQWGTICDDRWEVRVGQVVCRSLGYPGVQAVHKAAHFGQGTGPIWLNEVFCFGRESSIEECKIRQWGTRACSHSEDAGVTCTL

[3] = system: Hypoxia-inducible factor-1 (HIF-1); conditions: addition of the 4F peptide
C57BL/6J-Apc Min/+ mice = conditions: 4F in mouse chow
[4] = mouse, in vivo

Row | Sequence | plasma LPA levels (colon cancer) | tumor angiogenesis (colon cancer) | tumor burden (colon cancer) | tumor invasiveness (tumor invasiveness) | antioxidant enzyme manganese superoxide dismutase (MnSOD) [1] | proliferation and ability to form tumors [1] | levels of lysophosphatidic acid (LPA) (ovarian cancer) | tumor growth (ovarian cancer) | expression of HIF-1 alpha in mouse ovarian tumor tissues (ovarian cancer; administration of the 4F peptide) | inhibition of SR-A [2] | HIF-1 alpha induced in vitro by LPA [3] | LPA levels (C57BL/6J-Apc Min/+ mice) | number and size of tumors in the intestinal tract (C57BL/6J-Apc Min/+ mice) | amount of intact 6F peptide found in the small intestine [4] | intact 6F peptide in the plasma [4] | intact 6F peptide in the small intestine [4]
1 | DWFKAFYDKVAEKFKEAF (Synthetic recombinantly expressed peptide) [4F] | decreased | decreased | decreased | inhibited | upregulated | inhibited | decreased | decreased | markedly decreased | potent inhibitor | decreased | decreased | reduced | – | – | –
2 | DWLKAFYDKFFEKFKEFF (Synthetic recombinantly expressed peptide) [6F] | – | – | – | – | – | – | – | – | – | – | – | – | – | 15.6±7.4 µg 6F per 200 mg small intestine | not in the plasma | found
3 | DWLKAFYDKVFEKFKEFF (Synthetic recombinantly expressed peptide) [5F] | – | – | – | – | – | – | decreased | decreased | – | – | – | – | – | – | – | –
